Experimental data as given in patent publication US5747535A, “Selective thrombin inhibitors” (priority 1995, dated 1998).
pKi: −log10 of the molar value.

Key:
bovine thrombin = bovine thrombin (Bos taurus, UniProt P00735); experiment: biochemical;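 further: bovine thrombin cleaving the chromogenic substrate Chromozym TH, with para-nitroaniline release tracked as absorbance change over time to give initial rates, in Tris buffer at pH 7.8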
Description: The thrombin inhibitory effect of the compound of formula (I) according to the present invention can be identified by determination of a dissociation constant Ki represented by the following equation according to the known method described in literature [see, Methods in enzymology V. 80,p341-361;Biochemistry 27,p2144-2151 (1988)].
The dissociation constant Ki denotes the degree of dissociation of the enzyme-thrombin inhibitor complex. […] Such dissociation constant can be determined by reacting thrombin with a certain substrate which develops a color when it is hydrolyzed by the action of thrombin, and then measuring the degree of color development as a function of time by means of spectrophotometry.
Chromozym TH is hydrolyzed by thrombin to produce yellow para-nitroaniline. Accordingly, the amount of yellow para-nitroaniline thus produced can be measured as the change of absorbance in the course of time to determine the thrombin inhibitory activity of the compound according to the present invention. That is, the enzyme activity can be determined from the rate of change in absorbance and then can be directly connected with the ability of the thrombin inhibitor to inhibit the enzyme activity (see, Methods in Enzymology, V. 80,p341-361,Biochemistry 27, p2144-2151, 1988).
The ability of the compound according to the present invention to inhibit the thrombin activity was determined as described in the following.
1160 μl of 0.1M tris buffered solution (pH 7.8) containing 150 mM NaCl and 0.1% PEG 8000 (polyethylene glycol, molecular weight about 8,000) was added to a 1.5 ml cuvette. Chromozym TH was dissolved in dimethylsulfoxide(DMSO) in the concentration of 10mM and the resulting solution was diluted with the said tris buffered solution to the concentration of 0.1 mM, which was then used as the substrate solution. 225 μl of 0.1 mM substrate solution thus prepared was added to the cuvette. The inhibitor solution was prepared by dissolving the thrombin inhibitor compound according to the present invention in dimethylsulfoxide in the concentration of 10 mg/ml and then diluting the resulting solution with the said tris buffered solution to the concentration of 0.1 mg/ml, 0.01 mg/ml, 0.001 mg/ml and 0.0001 mg/ml. The resulting inhibitor solution was taken in an amount corresponding to 0 to 10 μg as the inhibitor and then diluted with tris buffered solution to make the total volume of 100 μl which was added to the cuvette.
15 μl of bovine thrombin solution dissolved in above tris buffered solution in the concentration of 0.1 mg/ml was added to the cuvette to initiate the enzyme hydrolysis reaction. The amount of para-nitroaniline produced for 2 minutes from the moment the enzyme is added was monitored by measuring the absorbance at 381 nm. The continuous spectrum of absorbance to reaction time was depicted. The same experiments were conducted for various concentration of the inhibitor to obtain the continuous spectrum.
In each spectrum, the initial velocity Vi was obtained from the slope within initial 30 seconds of the reaction time and then a graph for the reciprocal value of initial velocity(1/Vi) to the inhibitor concentration was depicted. From the graph, the primary equation satisfying the points depicted thereon was obtained and then the value Ki was calculated from the x intercept of the primary equation using the enzyme reaction equation.
The velocity constant Ks was obtained using the same solution in the same concentration as in determination of the value Ki but using the following experimental procedure.

trypsin = molecular target: T1, trypsin (Bos taurus, UniProt P00760); experiment: biochemical; type: biochemical; conditions: 20 μM substrate; read-out: Inhibitory activity for trypsin, Ki
T1 sequence (P00760 24-246): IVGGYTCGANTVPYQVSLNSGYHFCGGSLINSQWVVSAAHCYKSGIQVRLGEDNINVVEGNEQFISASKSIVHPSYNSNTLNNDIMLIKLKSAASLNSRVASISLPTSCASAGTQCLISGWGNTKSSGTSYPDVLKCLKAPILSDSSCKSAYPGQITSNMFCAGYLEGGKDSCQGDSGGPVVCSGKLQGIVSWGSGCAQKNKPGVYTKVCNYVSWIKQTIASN
Description: To identify the selectivity for thrombin over trypsin of the compound of the present invention, the inhibitory activity for trypsin of the compound of formula (I) is measured as Ki value according to the same method as the above method for determination of thrombin inhibitory activity, and then the ratio of the activity for trypsin to the activity for thrombin is calculated. In this case, the procedure for determination of inhibitory activity for trypsin is substantially identical to that for thrombin, except that N-benzoyl-Val-Gly-Arg para-nitroanilide hydrochloride is used as the substrate.
As the substrate 20μM solution of N-benzoyl-Val-Gly-Arg-p-nitroanilide hydrochloride was used, and the inhibitor was used in various concnetrations within the range of […]. In addition, trypsin was dissolved in 0.1N HCl, adjusted to the concentration of 45 μg/ml with the said tris buffered solution just before the experiment, and then used in an amount of 40μl. As in the experiment for thrombin, a total volume of the reaction solution was 1.5 ml and the remaining procedure was conducted in the same manner.

Row | Structure (SMILES) | pKi (bovine thrombin) | pKi (trypsin)
1 | CC(=O)N1CCN(C(=O)[C@H](Cc2ccc(C(=N)NN)cc2)NS(=O)(=O)c2ccc3ccccc3c2)CC1 [Example 56, (S)-naphthalene-2-sulfonic acid [2-(4-acetyl-piperazinyl)-1-(4-amidrazono)benzyl-2-oxoethyl]amide] | 6.55 | –
2 | COC(=O)[C@H](C)N(C)C(=O)[C@H](Cc1ccc(C(=N)NN)cc1)NS(=O)(=O)c1ccc2ccccc2c1 [Example 27, (S)-2-{[3-(4-amidrazono-phenyl)-(S)-2-(naphthalene-2-sulfonylamino)-propionyl]-methyl-amino}propionic acid methyl ester] | 7.19 | –
3 | COc1cc2ccc(S(=O)(=O)N[C@@H](Cc3ccc(C(=N)NN)cc3)C(=O)N(C)C3CCCC3)cc2cc1OC [Example 20, (S)-3-[4-(amidrazono)-phenyl]-N-cyclopentyl-N-methyl-2-(6,7-dimethoxy-naphthalene-2-sulfonylamino)-propionamide] | 7.66 | 5.64
4 | COc1cc(C)c(S(=O)(=O)N[C@@H](Cc2ccc(C(=N)NN)cc2)C(=O)N(C)C2CCCC2)c(C)c1C [Example 9, (S)-N-cyclopentyl-N-methyl-3-(4-amidrazonophenyl)-2-[(4-methoxy-2,3,6-trimethylbenzene)sulfonylamino]propionamide] | 6.64 | –
5 | N=C(NN)c1ccc(C[C@H](NS(=O)(=O)c2ccc3ccccc3c2)C(=O)N2CCN(c3cccc(C(F)(F)F)c3)CC2)cc1 [Example 55, (S)-naphthalene-2-sulfonic acid [1-(4-amidrazono)-benzyl-2-oxo-2-[-4-(3-trifluoromethyl-phenyl)-piperazinyl]-ethyl]-amide] | 5.00 | –
6 | CN(C(=O)[C@H](Cc1ccc(C(=N)NN)cc1)NC(=O)COc1cccc2ccccc12)C1CCCC1 [Example 23, (S)-3-[4-(amidrazono)-phenyl]-N-cyclopentyl-N-methyl-2-[2-(naphthalen-1-yl-oxy)acetylamino]-propionamide] | 5.59 | 4.66
7 | N=C(NN)c1ccc(C[C@H](NS(=O)(=O)c2ccc3ccccc3c2)C(=O)N2CCN(c3ccccc3)CC2)cc1 [Example 54, (S)-naphthalene-2-sulfonic acid [1-(4-amidrazono)benzyl-2-oxo-2-(4-phenyl-piperazinyl)-ethyl]amide] | 5.27 | –
8 | COC(=O)[C@H]1CCCCN1C(=O)[C@H](Cc1ccc(C(=N)NN)cc1)NS(=O)(=O)c1ccc2ccccc2c1 [Example 48, 1-[3-(4-amidrazono-phenyl)-(S)-2-(naphthalene-2-sulfonylamino)-propionyl]-piperidine-(R)-2-carboxylic acid methyl ester] | 7.89 | –
9 | CCOC(=O)C1CCCC1N(C)C(=O)[C@H](Cc1ccc(C(=N)NN)cc1)NS(=O)(=O)c1ccc2ccccc2c1 (stereo partly drawn) [Example 45, 2-{[3-(4-amidrazono-phenyl)-(S)-2-(naphthalene-2-sulfonylamino)-propionyl]-methylamino}-cyclopentane carboxylic acid ethyl ester] | 6.46 | –
10 | CCCCN(CC(=O)OC)C(=O)[C@H](Cc1ccc(C(=N)NN)cc1)NS(=O)(=O)c1ccc2ccccc2c1 [Example 39, {[3-(4-amidrazono-phenyl)-(S)-2-(naphthalene-2-sulfonylamino)-propionyl]-butylamino}-acetic acid methyl ester] | 6.78 | –
11 | CN(C(=O)[C@H](Cc1ccc(C(=N)NN)cc1)NC(=O)Cc1cccc2ccccc12)C1CCCC1 [Example 17, (S)-3-[4-(amidrazono)-phenyl]-N-cyclopentyl-N-methyl-2-(2-naphthalen-1-yl-acetylamino)-propionamide] | 7.80 | –
12 | CN(C(=O)[C@H](Cc1ccc(C(=N)NN)cc1)NC(=O)COc1ccc2ccccc2c1)C1CCCC1 [Example 24, (S)-3-[4-(amidrazono)-phenyl]-N-cyclopentyl-N-methyl-2-[2-(naphthalene-2-yl-oxy)acetylamino]-propionamide] | 4.70 | –
13 | COC(=O)CCN(C)C(=O)[C@H](Cc1ccc(C(=N)NN)cc1)NS(=O)(=O)c1ccc2ccccc2c1 [Example 33, 3-{[3-(4-amidrazono-phenyl)-(S)-2-(naphthalene-2-sulfonylamino)-propionyl]-methylamino}-propionic acid methyl ester] | 7.46 | –
14 | CCOC(=O)N1CCN(C(=O)[C@H](Cc2ccc(C(=N)NN)cc2)NS(=O)(=O)c2ccc3ccccc3c2)CC1 [Example 51, (S)-naphthalene-2-sulfonic acid [1-(4-amidrazono)benzyl-2-oxo-2-(4-ethoxycarbonyl-piperazinyl)-ethyl]amide] | 5.48 | –
15 | N=C(NN)c1ccc(C[C@H](NS(=O)(=O)c2ccc3ccccc3c2)C(=O)N2CCN(CCO)CC2)cc1 [Example 57, (S)-naphthalene-2-sulfonic acid [1-(4-amidrazono)benzyl-2-oxo-2-[4-(2-hydroxyethyl)-piperazinyl]-ethyl]amide] | 7.06 | –
16 | N=C(NN)c1ccc(C[C@H](NS(=O)(=O)c2ccc3ccccc3c2)C(=O)N(CCOCc2ccccc2)C2CCCC2)cc1 [Example 4, (S)-N-cyclopentyl-N-(2-benzyloxyethyl)-3-(4-amidrazonophenyl)-2-(2-naphthylsulfonylamino)propionamide] | 6.46 | –
17 | COC(=O)[C@H](C(C)C)N(C)C(=O)[C@H](Cc1ccc(C(=N)NN)cc1)NS(=O)(=O)c1ccc2ccccc2c1 [Example 47, (S)-2-{[3-(4-amidrazono-phenyl)-(S)-2-(naphthalene-2-sulfonylamino)-propionyl]-methylamino}-3-methyl-butyric acid methyl ester] | 6.18 | –
18 | CCN(C(=O)[C@H](Cc1ccc(C(=N)NN)cc1)NS(=O)(=O)c1ccc2ccccc2c1)C1CCCC1 [Example 6, (S)-N-cyclopentyl-N-ethyl-3-(4-amidrazonophenyl)-2-(2-naphthylsulfonylamino)propionamide] | 8.36 | –
19 | CN(C(=O)[C@H](Cc1ccc(C(=N)NN)cc1)NS(=O)(=O)c1cccc2ccccc12)C1CCCC1 [Example 22, (S)-3-[4-(amidrazono)-phenyl]-N-cyclopentyl-N-methyl-2-(naphthalene-1-sulfonylamino)-propionamide] | 7.77 | –
20 | CN(C(=O)[C@H](Cc1ccc(C(=N)NN)cc1)NS(=O)(=O)c1ccc2ccccc2c1)C1CCCC1C(=O)O (stereo partly drawn) [Example 46, 2-{[3-(4-amidrazono-phenyl)-(S)-2-(naphthalene-2-sulfonylamino)-propionyl]-methylamino}-cyclopentane carboxylic acid] | 6.06 | –
21 | COC(=O)CCCN(C)C(=O)[C@H](Cc1ccc(C(=N)NN)cc1)NS(=O)(=O)c1ccc2ccccc2c1 [Example 35, 4-{[3-(4-amidrazono-phenyl)-(S)-2-(naphthalene-2-sulfonylamino)-propionyl]-methyl-amino}-butyric acid methyl ester] | 6.21 | –
22 | COC(=O)[C@@H](C)N(C)C(=O)[C@H](Cc1ccc(C(=N)NN)cc1)NS(=O)(=O)c1ccc2ccccc2c1 [Example 29, (R)-2-{[3-(4-amidrazono-phenyl)-(S)-2-(naphthalene-2-sulfonylamino)-propionyl]-methyl-amino}-propionic acid methyl ester] | 7.05 | –
23 | N=C(NN)c1ccc(C[C@H](NS(=O)(=O)c2ccc3ccccc3c2)C(=O)N2CCCC[C@@H]2C(=O)O)cc1 [Example 49, 1-[3-(4-amidrazono-phenyl)-(S)-2-(naphthalene-2-sulfonylamino)-propionyl]-piperidine-(R)-2-carboxylic acid] | 6.39 | –
24 | CCOc1ccccc1N1CCN(C(=O)[C@H](Cc2ccc(C(=N)NN)cc2)NS(=O)(=O)c2ccc3ccccc3c2)CC1 [Example 58, (S)-naphthalene-2-sulfonic acid [1-(4-amidrazono)benzyl-2-oxo-2-[4-(2-ethoxyphenyl)-piperazinyl]-ethyl]amide] | 5.04 | –
25 | CCN1CCN(C(=O)[C@H](Cc2ccc(C(=N)NN)cc2)NS(=O)(=O)c2ccc3ccccc3c2)CC1 [Example 53, (S)-naphthalene-2-sulfonic acid [1-(4-amidrazono)benzyl-2-(4-ethyl-piperazinyl)-2-oxoethyl]amide] | 6.28 | –
26 | COC(=O)CN(C)C(=O)[C@H](Cc1ccc(C(=N)NN)cc1)NS(=O)(=O)c1ccc2ccccc2c1 [Example 25, {[3-(4-amidrazono-phenyl)-(S)-2-(naphthalene-2-sulfonylamino)-propionyl]-methyl-amino}-acetic acid methyl ester] | 6.59 | –
27 | COC(=O)[C@@H](C(C)C)N(C)C(=O)[C@H](Cc1ccc(C(=N)NN)cc1)NS(=O)(=O)c1ccc2ccccc2c1 [Example 31, (R)-2-{[3-(4-amidrazono-phenyl)-(S)-2-(naphthalene-2-sulfonylamino)-propionyl]-methyl-amino}-3-methyl-butyric acid methyl ester] | 6.78 | –
28 | CN(C)C(=O)[C@H](Cc1ccc(C(=N)NN)cc1)NS(=O)(=O)c1ccc2ccccc2c1 [Example 13, (S)-N,N-dimethyl-3-(4-amidrazonophenyl)-2-(2-naphthylsulfonylamino)propionamide] | 6.67 | –
29 | N=C(NN)c1ccc(C[C@H](NS(=O)(=O)c2ccc3ccccc3c2)C(=O)N2CCN(C=O)CC2)cc1 [Example 52, (S)-naphthalene-2-sulfonic acid [1-(4-amidrazono)benzyl-2-(4-formyl-piperazinyl)-2-oxoethyl]amide] | 7.30 | –
